Results published in patent publication US11761951B2, “Methods of selecting therapeutic molecules” (Bristol-Myers Squibb Company, priority 2015, dated 2023).

Experiments:
[1] = system: rat primary cortical neurons; assay: Primary cortical neuron spontaneous calcium oscillation (FLIPR, fluo-4 AM); format: cell-based; conditions: primary neuronal spontaneous calcium oscillations
Experimental: (§1) To measure primary cortical neuron spontaneous calcium oscillation, rat primary cortical neurons were prepared from Sprague-Dawley rat embryos (E19). Cells were plated 25,000 cells/well onto 384 well poly-D-lysine coated FLIPR plates (Greiner Bio-One) in 25 μl/well Neurobasal media containing B27 supplement and 2 mM glutamine (day 1 in vitro, DIV1). Cells were grown for 11 days at 37° C. in 5% CO2 and fed with 25 μl of additional media on day 4 in vitro (“DIV04”) and day 8 in vitro (“DIV08”) for use on day 11 in vitro (“DIV11”). […] After 1 hr 20 μl of room temperature assay buffer was added and the cells were allowed to equilibrate to room temperature for 10 additional minutes and placed in the fluorescent imaging plate reader (FLIPR). Baseline signal (measurement of intracellular calcium) was read for 100 seconds (1 reading/second) before the addition of anti-sense oligomers. […] FLIPR signal was read for an additional 200 seconds (1 reading/second) after the addition of oligomer. A second 5 minute post addition plate read (300 one second points) on the FLIPR was conducted to allow for additional data capture. Raw data from the 5 minute read was exported and, using Excel, spike amplitude and frequency was calculated. Calculations were performed by measuring the average FLIPR signal over the 300 second read for control (non-treated) wells. […]

[2] = system: central nervous system (CNS) network activity; assay: CNS network activity in vivo (data not shown)
[3] = system: spontaneous neuronal activity; assay: Electrophysiologic spontaneous neuronal activity in vitro (data not shown); format: cell-based
[4] = system: AMPA receptor; assay: AMPA receptor mediated spontaneous calcium oscillations in primary neurons; format: cell-based, rat; conditions: 25 μM oligomer; presence or absence of 1 mM MgCl2 representing 100% control
Experimental: as §1

[5] = system: NMDA receptor; assay: NMDA receptor mediated spontaneous calcium oscillations in primary neurons; format: cell-based, rat; conditions: 25 μM oligomer; presence or absence of 1 mM MgCl2 representing 100% control
Experimental: as §1

Q: Which “reduction of calcium oscillations (total AMPA response in the assay)” value ([1]; CNQX 3 μM) does the source give for “6-Cyano-7-nitroquinoxaline-2,3-dione [CNQX]” here?
A: 20%

Q: For `[Cl-].[Cl-].[Mg+2]` [MgCl2], which “reduction of calcium oscillations when NMDA receptor function was blocked” value ([1]; 1 mM MgCl2) is on record?
A: about 80%

Q: How did the “impact on central nervous system (CNS) network activity in vivo” value [2] turn out when “TGTgatgcaggaGTT (antisense TGTGATGCAGGAGTT; listed as DNA, chemistry not given here) [ASO-00007]” was run?
A: negatively impact

Q: What about the “impact on electrophysiologic spontaneous neuronal activity in vitro” value [3] of the same compound?
A: negatively impact

Q: What about the “inhibition of AMPA receptor mediated calcium oscillations” value [4] of the same compound?
A: inhibited AMPA receptor

Q: What about the “inhibition of NMDA receptor mediated calcium oscillations” value [5] of the same compound?
A: not NMDA receptor
